According to ChEMBL document CHEMBL4368864, “The transition to magic bullets - transition state analogue drug design” (Medchemcomm, 2018):
pKi: −log10 of the molar value.

Columns and labels:
[1] = Oral bioavailability in mouse; format: ADME, organism-based; details: in vivo
[2] = Inhibition of Crithidia fasciculata nucleoside hydrolase
[3] = target: T1, Purine nucleoside phosphorylase (Homo sapiens, UniProt P00491); test: Inhibition of human PNP
T1 sequence (P00491 whole entry): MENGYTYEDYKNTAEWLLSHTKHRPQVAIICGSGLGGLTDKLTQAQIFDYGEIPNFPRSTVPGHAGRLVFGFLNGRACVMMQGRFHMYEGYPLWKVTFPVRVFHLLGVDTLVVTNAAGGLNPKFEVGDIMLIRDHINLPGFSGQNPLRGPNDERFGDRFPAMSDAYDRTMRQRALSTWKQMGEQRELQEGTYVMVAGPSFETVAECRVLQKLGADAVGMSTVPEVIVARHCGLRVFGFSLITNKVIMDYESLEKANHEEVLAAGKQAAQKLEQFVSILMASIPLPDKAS

[4] = target: T2, Purine nucleoside phosphorylase (Bos taurus, UniProt P55859); test: Inhibition of bovine spleen PNP using inosine as substrate by xanthine oxidase coupled assay
T2 sequence (P55859 whole entry): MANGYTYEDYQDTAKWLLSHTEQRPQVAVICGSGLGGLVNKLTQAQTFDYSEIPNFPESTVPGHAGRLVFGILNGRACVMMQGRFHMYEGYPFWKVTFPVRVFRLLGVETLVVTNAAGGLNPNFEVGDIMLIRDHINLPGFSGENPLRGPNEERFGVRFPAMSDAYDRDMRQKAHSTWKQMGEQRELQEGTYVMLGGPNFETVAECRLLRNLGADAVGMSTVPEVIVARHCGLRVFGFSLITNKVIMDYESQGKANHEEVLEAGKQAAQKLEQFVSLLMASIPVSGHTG

[5] = target: T1, Purine nucleoside phosphorylase; test: Inhibition of human PNP using inosine as substrate by xanthine oxidase coupled assay

O=c1[nH]cnc2c([C@@H]3N[C@H](CO)[C@@H](O)[C@H]3O)c[nH]c12 [FORODESINE]
bioavailability [1]: 63%

OC[C@H]1N[C@@H](c2ccccc2)[C@H](O)[C@@H]1O
pKi [2]: 6.77

OC[C@H]1N[C@@H](c2cnc[nH]2)[C@H](O)[C@@H]1O
pKi [2]: 5.60

Nc1nc2c(Cc3cccnc3)c[nH]c2c(=O)[nH]1 [PELDESINE]
pKi [3]: 7.87

O=c1[nH]ccn2c([C@@H]3N[C@H](CO)[C@@H](O)[C@H]3O)cnc12
pKi [4]: 3.37

OC[C@H]1NC[C@H](O)[C@@H]1O [IMINORIBITOL]
pKi [2]: 5.00

Nc1ncnc2c([C@@H]3N[C@H](CO)[C@@H](O)[C@H]3O)c[nH]c12
pKi [4]: 5.59
pKi [5]: 7.48

O=c1[nH]cnc2c1ncn2[C@@H]1O[C@H](CO)[C@@H](O)[C@H]1O [INOSINE]
pKi [2]: 3.42

Nc1nc2c(ncn2COCCO)c(=O)[nH]1 [ACYCLOVIR]
pKi [3]: 4.04
